We go through 10 compounds from ChEMBL document CHEMBL4680368, “Myeloid Cell Leukemia-1 Inhibitors as Emerging Cancer Treatment” (ACS Med Chem Lett, 2021).

The target in one experiment is Induced myeloid leukemia cell differentiation protein Mcl-1 (Homo sapiens, UniProt Q07820). In words: Inhibition of Terbium-labeled BIM BH3 peptide binding to MCL1 (unknown origin) incubated for 60 mins by HTRF assay.
Sequence of Induced myeloid leukemia cell differentiation protein Mcl-1 (Q07820 whole entry): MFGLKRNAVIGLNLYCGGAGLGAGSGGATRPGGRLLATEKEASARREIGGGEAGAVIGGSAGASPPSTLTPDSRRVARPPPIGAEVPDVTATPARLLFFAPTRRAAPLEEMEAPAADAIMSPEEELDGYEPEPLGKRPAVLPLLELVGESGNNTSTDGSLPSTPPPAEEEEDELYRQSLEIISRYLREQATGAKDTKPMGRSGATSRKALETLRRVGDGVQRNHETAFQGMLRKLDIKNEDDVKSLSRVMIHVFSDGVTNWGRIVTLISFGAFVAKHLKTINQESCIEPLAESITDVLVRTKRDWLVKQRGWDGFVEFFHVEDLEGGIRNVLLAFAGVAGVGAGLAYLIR
Details: not given
Turning to `C[C@@H]1[C@@H](C)C/C=C(\F)CN2CC[C@H]2CN2C[C@@]3(CCCc4cc(Cl)ccc43)COc3ccc(cc32)C(=O)NS1(=O)=O`, the Ki (usually a dissociation constant, usually derived from enzyme kinetics or from competition with a known ligand) was 0.84 nM.

For the compound `COCCOCC1(COCCOC)/C(F)=C/C[C@H](C)[C@@H](C)S(=O)(=O)NC(=O)c2ccc3c(c2)N(C[C@@H]2CCN21)C[C@@]1(CCCc2cc(Cl)ccc21)CO3`, affinity was put at a Ki of 0.25 nM.

Test system in a further experiment: not listed separately
Nature of the experiment: Induction of apoptosis in human MOLP8 cells assessed as increase in caspase 3/7 activation incubated for 2 hrs by luminometric caspase-glo 3/7 assay. The conditions noted are these: MOLP-8, 2 h. The experiment is classed as functional, cell-based.
`C[C@@H]1[C@@H](C)C/C=C(\F)[C@H](CO)N2CC[C@H]2CN2C[C@@]3(CCCc4cc(Cl)ccc43)COc3ccc(cc32)C(=O)NS1(=O)=O`: the AC50 (in general, the concentration giving half of the maximal activity seen) is 144 nM.

As for `C[C@@H]1[C@@H](C)C/C=C(\F)[C@H](COc2ccccn2)N2CC[C@H]2CN2C[C@@]3(CCCc4cc(Cl)ccc43)COc3ccc(cc32)C(=O)NS1(=O)=O`, the AC50 worked out at 1490 nM.

For `C[C@@H]1[C@@H](C)C/C=C(\F)CN2CC[C@H]2CN2C[C@@]3(CCCc4cc(Cl)ccc43)COc3ccc(cc32)C(=O)NS1(=O)=O`, the AC50 came out at 692 nM.

As to `COC[C@H]1/C(F)=C/C[C@H](C)[C@@H](C)S(=O)(=O)NC(=O)c2ccc3c(c2)N(C[C@@H]2CCN21)C[C@@]1(CCCc2cc(Cl)ccc21)CO3`, the AC50 was determined as 181 nM.

`C[C@@H]1[C@@H](C)C/C=C(\F)[C@H](CN2CCN3CCOC[C@@H]3C2)N2CC[C@H]2CN2C[C@@]3(CCCc4cc(Cl)ccc43)COc3ccc(cc32)C(=O)NS1(=O)=O`: the AC50 turned out to be 120 nM.

Regarding `C[C@@H]1[C@@H](C)C/C=C(\F)[C@H](COCC(=O)O)N2CC[C@H]2CN2C[C@@]3(CCCc4cc(Cl)ccc43)COc3ccc(cc32)C(=O)NS1(=O)=O`, the AC50 worked out at 5990 nM.

As to `COCCOCC1(COCCOC)/C(F)=C/C[C@H](C)[C@@H](C)S(=O)(=O)NC(=O)c2ccc3c(c2)N(C[C@@H]2CCN21)C[C@@]1(CCCc2cc(Cl)ccc21)CO3`, the AC50 amounted to 152 nM.

For `C[C@@H]1[C@@H](C)C/C=C(\F)[C@H](COCCCN2CCOCC2)N2CC[C@H]2CN2C[C@@]3(CCCc4cc(Cl)ccc43)COc3ccc(cc32)C(=O)NS1(=O)=O`, the AC50 is 231 nM.

For the compound `C[C@@H]1[C@@H](C)C/C=C(\F)C(CO)(CO)N2CC[C@H]2CN2C[C@@]3(CCCc4cc(Cl)ccc43)COc3ccc(cc32)C(=O)NS1(=O)=O`, the AC50 was determined as 2390 nM.

Turning to `COCCCOC[C@H]1/C(F)=C/C[C@H](C)[C@@H](C)S(=O)(=O)NC(=O)c2ccc3c(c2)N(C[C@@H]2CCN21)C[C@@]1(CCCc2cc(Cl)ccc21)CO3`, the AC50 worked out at 274 nM.
